Our source for the inhibition and IC50 values is PMC7997369, “Assessment of the Multifunctional Behavior of Lupin Peptide P7 and Its Metabolite Using an Integrated Strategy” (Journal of Agricultural and Food Chemistry, 2020).

The target of assay [1] is T1, HMGCoAR (catalytic domain) (Homo sapiens, UniProt P04035).
T1 construct: finally the HMGCoAR (catalytic domain) (2 µL); purchased Sigma
T1 sequence (P04035 426-888 limits assumed): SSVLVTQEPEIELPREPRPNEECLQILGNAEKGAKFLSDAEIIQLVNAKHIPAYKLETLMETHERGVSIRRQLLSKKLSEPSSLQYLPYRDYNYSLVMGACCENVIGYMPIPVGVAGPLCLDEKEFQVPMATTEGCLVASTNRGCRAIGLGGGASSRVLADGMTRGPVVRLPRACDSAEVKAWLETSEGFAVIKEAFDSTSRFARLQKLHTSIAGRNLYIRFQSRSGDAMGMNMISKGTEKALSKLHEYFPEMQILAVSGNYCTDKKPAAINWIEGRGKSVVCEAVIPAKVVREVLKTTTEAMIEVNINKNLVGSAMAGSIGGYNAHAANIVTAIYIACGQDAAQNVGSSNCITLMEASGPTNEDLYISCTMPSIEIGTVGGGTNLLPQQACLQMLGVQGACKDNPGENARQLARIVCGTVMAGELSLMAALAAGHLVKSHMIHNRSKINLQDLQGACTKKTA
The experiment in a line: In vitro HMGCoAR inhibitory activity assay. The assay is classed as biochemical. The note with it: 37 °C, NADPH absorbance at 340 nm, mean ± sd of three independent experiments in triplicate. How it is done: The assay buffer, NADPH, substrate solution, and HMGCoAR were provided in the HMGCoAR assay kit (Sigma). The experiments were carried out testing LTFPG at 100 and 250 μM at 37 °C in agreement with the conditions previously reported.[8] For further details, see the Supporting Information.
The assay buffer, NADPH, substrate solution, and HMGCoAR were provided in the HMGCoAR Assay Kit (Sigma). The experiments were carried out following the manufacturer’s instructions at 37 °C. In particular, each reaction (200 µL) was prepared adding the reagents in the following order: 1 X assay buffer, LTFPG (100.0 and 250.0 µM) or vehicle (C), the NADPH (4 µL), the substrate solution (12 µL), and finally the HMGCoAR (catalytic domain) (2 µL). Subsequently, the samples were mixed and the absorbance at 340 nm read by a microplate reader Synergy H1 from Biotek at time 0 and 10 min. The HMGCoAR-dependent oxidation of NADPH and the inhibition properties of lupin peptides were measured by absorbance reduction, which is directly proportional to enzyme […]
In vitro ACE-inhibitory assay […]
The evaluation of the inhibition of ACE activity was based on the comparison between the concentrations of HA in the presence or absence of the inhibitor (Inhibitor Blank). The phenomenon of autolysis of HHL to give HA was evaluated by a reaction blank, i.e. a sample with the higher

The target of assay [2] is T1, HMGCoAR (catalytic domain). The conditions noted are these: read-out: IC50, in vitro HMGCoAR activity; cited from earlier work. An excerpt: To express their activity in vivo, peptides masked within a protein sequence need not only be released by specific and selective proteases but may also be absorbed at the intestinal level and enter blood circulation to reach the target organs.[2] Differentiated Caco-2 cells still represent the best available model system for intestinal transport studies.[3]−[5] […] To function as a competitive inhibitor of HMGCoAR, a peptide should mimic the hydroxymethylglutaryl moiety. To achieve this goal, the conformation and side chain groups play a more important role than the total hydrophobicity. Moreover, the correlation of the inhibitory activity with the peptide length has not yet been established, while it has been confirmed that a ...

Assay [3] has as its target angiotensin-converting enzyme (ACE) (Homo sapiens, UniProt P12821). The experiment in a line: Cellular ACE inhibitory assay in renal HK-2 cells. Type of assay: cell-based. More on the design: endogenous in cells. The note with it: HK-2 cells treated 24 h at 37 °C with P7 0.1–250 μM; ACE activity in cell lysates, fluorescent Abz substrate; mean ± sd of three independent experiments in triplicate. How it is done:
HK-2 cells from the American Type Culture Collection (ATCC) were cultured using Dulbecco’s modified Eagle’s medium–F12 (DMEM–F12) containing 25 mM glucose, 4 mM stable L-glutamine, 100 units […] penicillin, and 100 μg […] streptomycin, supplemented with 10% heat-inactivated fetal bovine serum (FBS, Hyclone Laboratories, Logan, UT, U.S.A.). […]
For the experiments, HK-2 and Caco-2 cells were seeded on 96-well plates at a density of 5 × 10^4 cells/well for 24 h. […] Total proteins were quantified by the Bradford method, and 2 μL of the supernatant (the equivalent of 2 μg of total proteins) was added to 18 μL of ACE1 lysis buffer in each well in a black 96-well plate with a clear bottom. […] Then, 20 μL of diluted ACE1 substrate [o-aminobenzoyl peptide (Abz-based peptide) substrate, 4% of ACE1 substrate in the assay buffer] was added in each well, except the background well, and the fluorescence (excitation/emission of 330/430 nm) was measured in a kinetic mode for 10 min at 37 °C.

No end group written: not given here.

Chain of angiotensin-converting enzyme (ACE) (P12821 30-1306): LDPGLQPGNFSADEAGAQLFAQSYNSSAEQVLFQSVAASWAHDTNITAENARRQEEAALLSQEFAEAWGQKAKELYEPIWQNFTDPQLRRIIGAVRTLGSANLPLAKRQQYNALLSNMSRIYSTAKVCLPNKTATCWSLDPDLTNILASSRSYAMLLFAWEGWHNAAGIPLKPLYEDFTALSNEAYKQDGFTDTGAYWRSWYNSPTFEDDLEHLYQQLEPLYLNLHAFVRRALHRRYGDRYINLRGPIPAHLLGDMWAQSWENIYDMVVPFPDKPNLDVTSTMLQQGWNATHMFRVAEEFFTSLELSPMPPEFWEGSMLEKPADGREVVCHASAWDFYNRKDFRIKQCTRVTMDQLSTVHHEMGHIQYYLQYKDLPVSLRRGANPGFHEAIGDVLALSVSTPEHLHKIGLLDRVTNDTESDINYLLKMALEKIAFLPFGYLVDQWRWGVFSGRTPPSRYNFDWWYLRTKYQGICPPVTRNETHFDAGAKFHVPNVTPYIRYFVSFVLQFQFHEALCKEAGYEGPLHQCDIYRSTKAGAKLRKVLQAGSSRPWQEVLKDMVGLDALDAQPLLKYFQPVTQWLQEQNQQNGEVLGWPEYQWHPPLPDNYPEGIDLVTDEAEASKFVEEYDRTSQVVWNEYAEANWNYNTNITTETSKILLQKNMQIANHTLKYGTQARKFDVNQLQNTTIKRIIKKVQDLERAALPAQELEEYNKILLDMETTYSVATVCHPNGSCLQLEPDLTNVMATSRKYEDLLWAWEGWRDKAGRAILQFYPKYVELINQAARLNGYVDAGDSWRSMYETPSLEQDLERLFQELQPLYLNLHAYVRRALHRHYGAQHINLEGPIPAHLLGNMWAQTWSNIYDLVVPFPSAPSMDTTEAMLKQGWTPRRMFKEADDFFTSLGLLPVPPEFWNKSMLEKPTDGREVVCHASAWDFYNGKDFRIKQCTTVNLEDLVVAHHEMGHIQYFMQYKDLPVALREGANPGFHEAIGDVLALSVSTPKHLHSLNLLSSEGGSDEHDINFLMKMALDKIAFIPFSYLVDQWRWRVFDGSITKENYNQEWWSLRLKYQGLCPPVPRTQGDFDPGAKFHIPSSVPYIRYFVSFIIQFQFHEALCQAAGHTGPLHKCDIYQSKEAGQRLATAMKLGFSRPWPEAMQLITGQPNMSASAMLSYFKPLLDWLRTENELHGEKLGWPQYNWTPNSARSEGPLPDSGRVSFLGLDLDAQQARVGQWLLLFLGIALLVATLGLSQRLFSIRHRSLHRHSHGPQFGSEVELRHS

Turning to LTFPG [LTFPG], the inhibition at 100 µM in assay [1] (100 μM) amounted to 4.7 ± 0.3%. Also, the inhibition at 250 µM in assay [1] (250 μM) was 10.3 ± 0.8%.
With LTFPGSAED [P7], the IC50 in assay [2] was 68.4 µM; in assay [3], 79.6 µM.
